Patent publication EP1379634B1 (THE UNIVERSITY OF GEORGIA RESEARCH FOUNDATION, INC., priority 2001, dated 2002)
Residues, ends and D or L forms follow the SMILES beside them. *: point of attachment. AFC = O=c1cc(C(F)(F)F)c2ccc(N*)cc2o1; Cbz = O=C(OCc1ccccc1)*; CH2F = FC*

Tests used:
Taenia solium crude mix = assay: Substrate cleavage screen of AFC-linked peptides (Step II), crude mix; type: biochemical; conditions: 0.4 M Citrate, pH 4.9, 18 h, 37 °C
Method: (§1) In this step, the most efficacious substrate for detection of the cysteine protease (high Kcat substrate) was determined in vitro along with those substrates which were not well cleaved (low kcat substrates). From this point forward, the following conditions refer to all assays: "assay buffer" refers to 0.4 M Citrate, pH 4.9 (the pH optima of the protease). Incubation time was 18 hours at 37°C. These conditions were determined by our preliminary data to be best for kinetic evaluation of the protease. […] The experiments were conducted in 6X50 […] Borosilicate mini-culture tubes (Fisher Scientific), and a fluorometer (Turner) was employed for detection of AFC cleavage.
In order to prepare the Taenia solium "crude mix", dry frozen Taenia solium cysts were obtained from 6-12 month old cysticercotic pigs from villages in an endemic area of porcine cysticercosis in Mexico. Metacestodes were carefully dissected from the parasitized tissues, washed three times with PBS, and lyophilized. Parasite extracts were prepared by suspending 0.1 grams of dry frozen cysts in 10 ml of extraction buffer (0.4 M citrate, pH 4.9) at room temperature. The cysts were vortexed for three five-minute intervals with intermittent incubations (5 min) at 4 °C. Particulate material was removed by centrifugation (20,000 x g, 120 min) and the resulting soluble fraction filtered ([…]). In assay buffers, the detectable amount of the crude mix, as described above, was employed and incubated with the target substrates.
(§2) Vmax for the cleavage of substrates by the purified target protease and Vmax for substrates cleaved by the crude mix protease were each calculated using conventional kinetic modeling calculations already described in the art.

[1] = test system: purified Taenia solium cysteine protease; assay: Substrate cleavage screen of AFC-linked peptides (Step II), purified protease; type: biochemical; conditions: 0.4 M Citrate, pH 4.9, 0.01 M cysteine, 18 h, 37 °C
Method: as §1
Since the full 8,420 amino acid possibilities for cleavage were not available, representative substrates were employed. […] In order to choose this subset, representative amino acids (i.e., selected from the categories of acidic, basic, nonpolar, uncharged) were chosen so as to create as many categories of motifs as feasible for the P3-P1 positions with a set of 67 small peptides (see lists at Fig. 4a and Fig. 4b). The target cysteine protease from Taenia solium was isolated using the purification methods described previously in the patent WO 00/63350.
Approximately 1 ug (or a proteolytically detectable amount) of the purified target cysteine protease was incubated individually, with 1 ug of each of the available substrates in 500 uL of assay buffer. During this setup, the substrate was pre-incubated in the assay buffer for a short period of time (20 minutes) in order to reach an equilibrated status before the addition of the protease. Cleavage assessments were based upon the property of the protease to cleave synthetic peptide substrates linked at the C-terminus to 7-Amino-4-Trifluoromethyl Coumarin (AFC) as previously described. AFC linked tripeptides, dipeptides, and monopeptides, (with a variety of permutations at P3-P1) were available from Enzyme Systems Products (Livermore, CA), and were used as the source of the subset. Following incubation of enzyme preparations overnight (18 h, 37 °C) with peptide in assay buffer (Citrate, pH 4.9, supplemented with 0.01 M cysteine), free AFC concentrations were measured fluorometrically (excitation 405 nm, emission 505 nm). The proteolytic cleavage released the AFC group, which was measurable as a free molecule by a standard fluorometer and converted into molar quantities, based upon a previously established standard curve. The simplicity of AFC detection by the fluorometer was a key factor which expedited and simplified the procedures.
In the assay, 1 ug of the purified Taenia cysteine protease was added to a saturating amount of Z-Phe-Arg-AFC (4X10^-5 M) in assay buffer. The experiment was conducted in triplicate and repeated at least 5 times until we were certain that variability in AFC cleavage was not statistically significant.
as §2

[2] = test system: purified Taenia solium cysteine protease; assay: Protease inactivator inhibition assay against cocktail, EC100 and Ki (Step VII); type: biochemical; conditions: for % Inhibition of T. solium CP in vitro: concentration not stated in Table 4; for ranking by EC100: dilution study, nanomolar levels
Description: Once the protease inactivators were synthesized in the organic laboratory, they were to be tested for the lowest efficacious concentrations at which they induced 100% inhibition of the target protease (EC100). The top percent cocktail that was employed in the final vehicle selection step of Step III was employed as the source of competition for the inhibitors. In this case, this was the 7.9% cocktail that was comprised of Z-FR-AFC, Z-FAR-AFC, Z-AP-AFC, Z-AAK-AFC, and Z-VLR-AFC. The final result would be a ranking of transition state candidate protease inactivators with a high ranking directly correlating to a low EC100 value. The following steps describe the assay: • Step A: Initial Screening. To set up the test control, each protease inactivator was first incubated with the 5% cocktail (which provided the final differentiation of vehicles in Step III). To begin with, the protease inactivator was incubated at a concentration of 3 X 10^-9M in 500 ul of assay buffer (0.2 M Citrate, pH 4.9, supplemented with 10mM L-cysteine). This concentration was determined by a series of inhibitor dilutions to be the best inhibitor concentration at which a differentiation in inhibitor potential could be noted. Next, a concentration equal to 4 X 10^-5M for each of the individual cocktail components, was added to the mix. The components were allowed to equilibrate for a period of 30 minutes. Finally, active purified enzyme was added to the tubes at a concentration which was always at least 50 times less than the concentration of the lowest concentration in the mix (so as to provide saturating conditions.) This concentration varied from purification to purification, and the amount that was added depended upon the yield and specific activity of the purified protease. Positive controls were set up similarly as described for test controls, except that solvent was added in substitution for the protease inactivator (in a volume equal to the […] volume addition). All of the protease inactivators could be dissolved in dimethylsulfoxide (DMSO), and therefore, this was the solvent of choice. Negative controls were set up by adding the protease inactivator and the cocktail substrates in a tube, without the protease. All potential non-proteolytic induced liberation of AFC was therefore controlled for in this tube. All controls were set up in triplicate, and experiments repeated a minimum of five times. The assays were incubated at 37°C, overnight. Percent inhibition was calculated as: %Inhibition = ((AFC positive for "SI"−AFC negative for "SI")−(AFC test−AFC negative for "SI"))/(AFC positive for "SI"−AFC negative for "SI") × 100 [formula] • Step B: Inhibitor Dilution Studies and formation of a ranked list of protease inactivators based upon EC100 values. […] Because of this, a dilution study was required in order to determine a viable ranking. Thus, the concentration of each of the protease inactivators was lowered with a dose response setup until the most efficacious concentration for 100% inhibition (EC100) could be determined. The inhibitors had to be diluted to nanomolar levels in order to establish a differentiable EC100 pattern. The final result of the assay was a ranked candidate list of protease inactivators. A lower EC100 was attributable to a higher ranking and vice-versa. • Step C: Determination of Inhibitor Ki and mode of inhibition, and re-ranking of EC100 list with inhibitor Ki. Ki of each of the top ranked protease inactivators, based upon low EC100 values, was assessed next for the top 5 EC100 inhibitors.
In order to determine Ki, all of the high Vmax cocktail substrates were employed for Ki determination (since Ki of the inhibitor for the enzyme is the same regardless of the substrate). To insure the highest accuracy, Ki was to be determined upon a minimum of at least three of the high Kcat substrates. Nonlinear fitting and the Dixon plot were both employed to determine Ki of the top ranked protease inactivators. […]

Taenia crassiceps cysts = assay: Short-term protection of BALB/c mice from cysticercosis infection; type: in vivo
T. solium (cysteine) = assay: Selectivity test (Steps VI and IX), T. solium cysteine protease; type: biochemical, Taenia solium; conditions: inhibitor 3 X 10^-10 M
Method: (§3) In order to perform the assay, the vehicle (for Step VI) or inhibitor (for Step IX) were incubated with the appropriate substrate in the correct assay buffer and allowed to equilibrate. Subsequently, the protease was added, and the assay was allowed to incubate for an appropriate time. The concentrations used in this experiment were as follows: Vehicle was set up at 4 X 10^-5 M in final assay buffer; Inhibitor was set up at 3 X 10^-10 M in the final assay buffer. Preferably the dosages employed should be the minimal amount of vehicle or inhibitor necessary to induce inhibition. […] Substrates were set up based upon the preferred substrate for cleavage of the particular enzyme.
(§4) Positive controls were set up similarly as described for test controls, except that a solvent blank was added in substitution for the inhibitor or vehicle (in a volume equal to the volume of inhibitor or vehicle addition). All of the inhibitors and vehicles could be dissolved in dimethylsulfoxide (DMSO), and therefore, this was the solvent of choice. Negative controls were set up by adding the inhibitor or vehicle and the preferred substrates in a tube without the protease. All potential non-proteolytic liberation of AFC was therefore controlled for in this tube.
(§5) All controls were set up in triplicate, and experiments were repeated a minimum of five times.
(§6) Percent inhibition was calculated as: %Inhibition = ((AFC positive for "SI"−AFC negative for "SI")−(AFC test−AFC negative for "SI"))/(AFC positive for "SI"−AFC negative for "SI") × 100 [formula]
(§7) In this preliminary test, we employed the following human-derived enzymes (with indicated mechanistic class in parentheses): Cathepsin B (cysteine), Cathepsin L (cysteine), Cathepsin H (cysteine), Cathepsin D (aspartic), Trypsin (serine), the purified Taenia solium cysteine protease, and the Taenia solium crude mix. Cathepsin B was prepared in an assay buffer of 10 mM L-cysteine in 0.4 M Citrate buffer, pH 6.1, using Z-ARR-AFC as the cleavage substrate. Cathepsin L was prepared in an assay buffer of 10 mM L-cysteine in 0.4 M Citrate buffer, pH 5.5, using Z-FR-AFC as the cleavage substrate. Cathepsin H was prepared in an assay buffer of 10 mM L-cysteine in 0.15 M PBS buffer, pH 6.8, using L-R-AFC as the cleavage substrate. Cathepsin D was prepared in an assay buffer of 0.15 M PBS, pH 7.1, using Z-RGFFP-AFC as the cleavage substrate. Trypsin was prepared in an assay buffer of 0.15 M PBS, pH 8.0, supplemented with 100 mM CaCl2 and with Z-R-AFC as the cleavage substrate. Enzyme was incubated so that it was at least 50 times less than the concentration of substrate in order to insure saturating conditions.

BALB/c mice = assay: Observation of side effects in treated mice; type: in vivo
Trypsin = assay: Selectivity test (Steps VI and IX), Trypsin; type: biochemical, human; conditions: inhibitor 3 X 10^-10 M; pH 8.0, substrate Z-R-AFC; 0.0003 µM
Method: as §3, §4, §5, §6, §7

[3] = test system: normal BALB/c mouse splenocytes; assay: Splenocyte proliferation (3H-thymidine incorporation) with or without Con-A; type: cell-based
Cathepsin L = Cathepsin L (Homo sapiens, UniProt P07711); assay: Selectivity test (Steps VI and IX), Cathepsin L; type: biochemical; conditions: inhibitor 3 X 10^-10 M; pH 5.5, substrate Z-FR-AFC; 0.0003 µM
Cathepsin L, sequence (P07711 114-333): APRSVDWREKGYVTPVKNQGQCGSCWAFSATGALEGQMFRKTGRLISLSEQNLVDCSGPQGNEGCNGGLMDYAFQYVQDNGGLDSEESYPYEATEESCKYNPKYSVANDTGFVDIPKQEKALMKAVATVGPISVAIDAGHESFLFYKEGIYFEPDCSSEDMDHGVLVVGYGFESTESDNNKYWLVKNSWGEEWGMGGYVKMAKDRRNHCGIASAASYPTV
Method: as §3, §4, §5, §6, §7

Compound: C[C@H](N)C(=O)N1CCC[C@H]1C(=O)Nc1ccc2c(C(F)(F)F)cc(=O)oc2c1 [AP-AFC] (H-Ala-Pro-{AFC})
- cleavage of AFC substrate (Vmax) (Taenia solium crude mix): most cleaved

Compound: C[C@H](NC(=O)OCc1ccccc1)C(=O)N[C@@H](C)C(=O)N[C@@H](CCCCN)C(=O)Nc1ccc2c(C(F)(F)F)cc(=O)oc2c1 [Z-AAK-AFC] (Cbz-Ala-Ala-Lys-{AFC})
- cleavage of AFC substrate (Vmax) (Taenia solium crude mix): most cleaved

Compound: C[C@H](NC(=O)[C@H](Cc1ccccc1)NC(=O)OCc1ccccc1)C(=O)N[C@@H](CCCNC(=N)N)C(=O)Nc1ccc2c(C(F)(F)F)cc(=O)oc2c1 [Z-FAR-AFC] (Cbz-Phe-Ala-Arg-{AFC})
- cleavage of AFC substrate (Vmax) (Taenia solium crude mix): most cleaved

Compound: N=C(N)NCCC[C@H](NC(=O)[C@H](Cc1ccccc1)NC(=O)OCc1ccccc1)C(=O)Nc1ccc2c(C(F)(F)F)cc(=O)oc2c1 [Z-FR-AFC, Z-Phe-Arg-AFC, reference compound] (Cbz-Phe-Arg-{AFC})
- cleavage of AFC substrate (Vmax) (Taenia solium crude mix): most cleaved
- cleavage of AFC substrate (Vmax) [1]: cleaved
- cleavage of AFC substrate (Vmax) ([1]; listed as Z-Phe-Arg-AFC): highest Vmax

Compound: CC(C)C[C@H](NC(=O)[C@H](CC(C)C)NC(=O)[C@H](CC(C)C)NC(=O)OCc1ccccc1)C(=O)CF [Z-LLL-FMK, Z-Leu-Leu-Leu-fluoromethylketone] (Cbz-Leu-Leu-Leu-CH2F)
- % Inhibition of T. solium CP in vitro [2]: 100%
- ranking by EC100 [2]: top inhibitors
- % Therapeutic protection of BALB/c mice (Taenia crassiceps cysts; inhibitor treatment began two weeks after infection): 60%
- % inhibition (T. solium (cysteine)): 98%
- side effects in treated animals (BALB/c mice; long or short-term period): only negligible side effects
- side effects in treated mice (BALB/c mice; long-term studies): no side effects
- % inhibition (Trypsin): 0%
- proliferative response (3H-thymidine incorporation) ([3]; inhibitor alone): do not induce a proliferative response
- toxicity to splenocytes in vitro ([3]; preliminary results): nontoxic
- % inhibition (Cathepsin L): almost half of the inhibition of the Taenia solium cysteine protease

Compound: CC(C)C[C@@H](/C=C/S(C)(=O)=O)NC(=O)[C@H](CC(C)C)NC(=O)[C@H](CC(C)C)NC(=O)OCc1ccccc1 [Z-LLL-VS, Z-Leu-Leu-Leu-vinylsulfone]
- ranking by EC100 [2]: top inhibitors

Compound: CC(C)C[C@H](NC(=O)[C@@H](NC(=O)OCc1ccccc1)C(C)C)C(=O)N[C@@H](CCCNC(=N)N)C(=O)Nc1ccc2c(C(F)(F)F)cc(=O)oc2c1 [Z-VLR-AFC] (Cbz-Val-Leu-Arg-{AFC})
- cleavage of AFC substrate (Vmax) (Taenia solium crude mix): most cleaved

Compound: Leu-Phe-Ketoamide-Pyridyl [K-Pyr, reference compound]
- % Inhibition of T. solium CP in vitro [2]: 80%
- % Prophylactic protection of BALB/c mice (Taenia crassiceps cysts; pre-injected two days, 10 T. crassiceps cysts/mouse, dosed daily four weeks, cysts counted after one month): 40%
